Activity calls are given as the source filed them.
Columns and labels:
[1] = Glucagon-like peptide 1 release potency, NCI-H716 cell line, dose-response, half-maximal inhibitory concentration (AID 1117344); assay type: functional, cell-based
[2] = half-maximal inhibitory concentration for glucagon-like peptide-1 release, STC-1 cell line, dose-response (AID 1117345); assay type: functional, cell-based
Albumin = Albumin (Bos taurus, UniProt P02769); assay: Counterscreen for inhibitors of T-cell receptor (TCR)-CD3 interaction: Fluorescence-based biochemical high throughput dose response assay to identify inhibitors of T-cell receptor (TCR)-CD3 interaction using a TAMRA-labeled BSA probe.; assay type: functional
[3] = microbe, parasite or virus in culture; assay type: functional; conditions: Mycobacterium tuberculosis
[4] = control 3'UTR Renilla luciferase suppression, dose response, counter-screen for Shn3 inhibitor project, cell-based, Clone20-Shn3RL, cherry-picked (AID 624133); assay type: functional
[5] = target: T1, Ubiquitin-conjugating enzyme E2 N (Homo sapiens, UniProt P61088); assay type: functional;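 also: Dose-response confirmation in a TR-FRET assay detecting UBC13-driven polyubiquitin chain formation, inhibition measured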
T1 sequence (P61088 whole entry): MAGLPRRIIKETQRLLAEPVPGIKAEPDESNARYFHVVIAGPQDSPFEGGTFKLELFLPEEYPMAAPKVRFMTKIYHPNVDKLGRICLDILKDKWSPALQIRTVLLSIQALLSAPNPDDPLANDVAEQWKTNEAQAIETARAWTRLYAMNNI

INS1 = assay: beta cell apoptosis inhibitors, cytokine rescue, dose response, luminescence, retest (AID 449756); assay type: functional, cell-based; conditions: Rattus norvegicus;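 also: cell death triggered by IL-1 beta plus TNF-alpha plus IFN-gamma mixture; protective hits raise ATP signal compared with cytokine alone wells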
[6] = Luminescence Cell-Based Dose Retest to Confirm Inhibitors of Cancer Stem Cells. [Related pubchem assays (depositor defined):AID2717, AID2721]; assay type: functional; conditions: Homo sapiens
[7] = Shn3 3'UTR reporter inhibitors, dose response, cell-based, Clone20 osteoblasts, firefly luciferase, cherry-picked (AID 624132); assay type: functional;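 also: firefly luciferase luminescence from reporter carrying the Shn3 3'UTR in osteoblasts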
cells [8] = assay type: functional, cell-based
[9] = target: T2, Trace amine-associated receptor 1 (Homo sapiens, UniProt Q96RJ0); assay: Counterscreen for agonists of the human trace amine associated receptor 1 (hTAAR1): Fluorescence-based cell-based high throughput dose response assay to identify hTAAR1 agonist that also desensitize TAAR1 receptor response.; assay type: functional
T2 sequence (Q96RJ0 whole entry): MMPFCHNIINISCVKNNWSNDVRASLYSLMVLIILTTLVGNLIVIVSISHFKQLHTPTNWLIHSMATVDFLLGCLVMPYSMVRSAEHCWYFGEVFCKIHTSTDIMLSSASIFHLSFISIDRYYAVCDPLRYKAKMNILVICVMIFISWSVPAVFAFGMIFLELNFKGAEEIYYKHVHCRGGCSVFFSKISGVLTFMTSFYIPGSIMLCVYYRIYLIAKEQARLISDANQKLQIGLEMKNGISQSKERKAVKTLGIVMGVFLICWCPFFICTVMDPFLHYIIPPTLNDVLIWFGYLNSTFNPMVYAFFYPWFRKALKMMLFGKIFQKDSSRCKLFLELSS

cells [10] = assay type: functional, cell-based; remark: listed apart in the source
[11] = target: T2, Trace amine-associated receptor 1; assay: Fluorescence-based cell-based high throughput dose response assay to identify agonists of the human trace amine associated receptor 1 (TAAR1).; assay type: functional
[12] = target: T3, RNA-binding protein pos-1 (Caenorhabditis elegans, UniProt G5EF15); assay: inhibitors of POS-1/mex-3 RNA binding, dose response, biochemical, fluorescence polarization (AID 1964);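 also: purified POS-1 fused to maltose binding protein made in E. coli; potency of compounds blocking POS-1 binding to fluorescent RNA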
T3 sequence (G5EF15 whole entry): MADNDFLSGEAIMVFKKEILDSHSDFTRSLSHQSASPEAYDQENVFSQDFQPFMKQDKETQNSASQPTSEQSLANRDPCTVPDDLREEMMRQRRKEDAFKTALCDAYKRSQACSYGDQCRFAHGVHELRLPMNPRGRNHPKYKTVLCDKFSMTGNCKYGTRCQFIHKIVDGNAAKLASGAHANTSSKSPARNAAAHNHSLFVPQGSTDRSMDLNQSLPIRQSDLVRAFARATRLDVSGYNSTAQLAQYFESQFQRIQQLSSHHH

[13] = target: Tyrosyl-DNA phosphodiesterase 2 (Homo sapiens, UniProt O95551); assay: human TDP2 enzyme inhibitors, dose response, biochemical, epi absorbance, IC50 (AID 743297)
[14] = target: T4, Zinc finger protein mex-5 (Caenorhabditis elegans, UniProt Q9XUB2); assay: MEX-5/TCR-2 RNA interaction inhibitors, dose response, biochemical, C. elegans, fluorescence polarization (AID 1960)
T4 sequence (Q9XUB2 whole entry): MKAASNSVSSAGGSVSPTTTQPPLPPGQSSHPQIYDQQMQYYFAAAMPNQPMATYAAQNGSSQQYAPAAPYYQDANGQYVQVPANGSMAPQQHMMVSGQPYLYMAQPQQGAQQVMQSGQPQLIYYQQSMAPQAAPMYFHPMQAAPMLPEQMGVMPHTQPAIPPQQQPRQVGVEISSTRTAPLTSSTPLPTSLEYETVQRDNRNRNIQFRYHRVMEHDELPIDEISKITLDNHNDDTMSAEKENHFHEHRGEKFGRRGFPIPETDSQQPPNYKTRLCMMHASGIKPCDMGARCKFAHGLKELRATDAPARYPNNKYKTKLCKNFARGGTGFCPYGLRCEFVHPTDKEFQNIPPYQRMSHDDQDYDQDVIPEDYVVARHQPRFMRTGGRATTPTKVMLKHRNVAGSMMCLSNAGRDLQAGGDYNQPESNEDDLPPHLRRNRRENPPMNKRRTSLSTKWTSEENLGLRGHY

cells [15] = assay: cells
[16] = target: T5, Oxysterols receptor LXR-beta (Homo sapiens, UniProt P55055); assay type: functional, cell-based;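 also: Cell-based luminescence dose-response assay of agonist activity at LXR, run as a confirmatory counterscreen to a daf-12 agonist screen; HEK293 cells with Gal4-LXR fusion and GAL4-driven luciferase reporter; agonist potency from rising luciferase signal of a Gal4-LXR reporter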
T5 sequence (P55055 whole entry): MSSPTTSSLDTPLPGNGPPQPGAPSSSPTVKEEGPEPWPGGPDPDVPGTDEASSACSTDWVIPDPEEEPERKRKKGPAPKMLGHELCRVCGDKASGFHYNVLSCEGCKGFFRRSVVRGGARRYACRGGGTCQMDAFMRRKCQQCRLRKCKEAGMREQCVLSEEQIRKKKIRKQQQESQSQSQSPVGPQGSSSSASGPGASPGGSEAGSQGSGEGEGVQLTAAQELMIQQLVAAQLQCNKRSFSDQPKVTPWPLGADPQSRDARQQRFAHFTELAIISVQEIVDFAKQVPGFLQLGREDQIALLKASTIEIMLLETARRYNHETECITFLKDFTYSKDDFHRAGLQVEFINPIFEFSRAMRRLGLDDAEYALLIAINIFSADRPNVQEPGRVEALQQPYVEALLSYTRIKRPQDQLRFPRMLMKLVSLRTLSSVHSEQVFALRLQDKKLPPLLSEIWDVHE

Sequence of Albumin (P02769 whole entry): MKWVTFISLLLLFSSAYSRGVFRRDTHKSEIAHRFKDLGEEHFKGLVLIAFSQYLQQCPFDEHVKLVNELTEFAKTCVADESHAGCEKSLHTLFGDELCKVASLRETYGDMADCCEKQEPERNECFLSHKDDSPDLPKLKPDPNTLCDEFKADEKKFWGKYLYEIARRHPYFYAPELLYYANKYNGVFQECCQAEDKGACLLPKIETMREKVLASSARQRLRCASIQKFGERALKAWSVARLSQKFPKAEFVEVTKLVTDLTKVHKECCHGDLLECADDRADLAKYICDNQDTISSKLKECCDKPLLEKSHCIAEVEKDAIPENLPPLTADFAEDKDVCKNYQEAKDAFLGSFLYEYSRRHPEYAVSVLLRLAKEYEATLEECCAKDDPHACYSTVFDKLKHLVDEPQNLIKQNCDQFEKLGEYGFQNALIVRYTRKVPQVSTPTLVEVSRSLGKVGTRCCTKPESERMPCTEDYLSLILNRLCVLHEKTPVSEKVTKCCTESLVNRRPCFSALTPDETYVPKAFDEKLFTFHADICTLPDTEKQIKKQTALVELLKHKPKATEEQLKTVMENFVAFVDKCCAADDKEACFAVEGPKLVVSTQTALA
Sequence of Tyrosyl-DNA phosphodiesterase 2 (O95551 whole entry): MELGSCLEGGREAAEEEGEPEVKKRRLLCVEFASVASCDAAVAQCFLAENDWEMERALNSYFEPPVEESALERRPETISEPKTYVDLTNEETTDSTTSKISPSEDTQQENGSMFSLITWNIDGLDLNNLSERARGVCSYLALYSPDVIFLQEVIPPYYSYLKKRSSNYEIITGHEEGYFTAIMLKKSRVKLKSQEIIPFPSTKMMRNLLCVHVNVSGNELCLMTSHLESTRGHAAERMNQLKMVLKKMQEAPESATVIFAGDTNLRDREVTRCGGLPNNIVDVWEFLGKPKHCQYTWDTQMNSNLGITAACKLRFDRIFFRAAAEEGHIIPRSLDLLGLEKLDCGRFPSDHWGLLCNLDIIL

SMILES: C=CC1=C(C)c2cc3[nH]c(cc4nc(cc5[nH]c(cc1n2)c(C)c5CCC(=O)O)C(CCC(=O)O)=C4C)c(C)c3C=C [PROTOPORPHYRIN DISODIUM]
- IC50 [1]: 19.6 µM (inactive)
- IC50 [2]: > 40 µM (inactive)

SMILES: O=C(Cc1ccccc1)N/N=C/c1cc(Br)cc(Br)c1O
- IC50 (Albumin): > 94.1 µM (inactive)

SMILES: O=C(NNC(=O)c1ccc2ccccc2c1O)NC1CCCCC1
- IC50 (Albumin): > 94.1 µM (inactive)

SMILES: CCCCCCCCNC(C)C(O)c1ccc(SC(C)C)cc1 (configuration not stated) [SULOCTIDIL]
- IC50 [1]: 13 µM (inactive)
- CC50 [3]: 17.3 µM (active)
- AC50 [4]: 8.28 µM (active)
- IC50 [5]: > 20 µM (inactive)
- AC50 (INS1): 8.21 µM (active)
- AC50 [6]: 2.11 µM (active)
- IC50 [2]: > 40 µM (inactive)
- AC50 [7]: 3.94 µM (active)

SMILES: O=C(NCCc1cccs1)c1ccc(Cl)cc1
- IC50 (cells [8]): > 29.9 µM (inactive)
- IC50 [9]: 3.48 µM (active)
- EC50 (cells [10]): > 29.9 µM (inactive)
- EC50 [11]: 1.19 µM (active)

SMILES: CN(C)c1cccc2c1c(NS(=O)(=O)c1cn(C)cn1)nn2C
- EC50 [12]: 89.8 µM (active)
- IC50 [13]: 106 µM (inactive)
- EC50 [14]: 32.5 µM (active)

SMILES: Nc1nc2c(-c3ccc(Br)cc3)nnn2c2ccccc12
- EC50 (cells [15]): > 67.6 µM (inactive)
- EC50 [16]: > 67.6 µM (inactive)

SMILES: Cc1cc(NC2=CC(=O)C(=O)c3ccccc32)no1
- IC50 [13]: 3.52 µM (active)
